The values that follow come from patent publication US20260294863A1, “METHOD OF TREATING FIBROTIC-RELATED CONDITION” (YISSUM RESEARCH DEVELOPMENT COMPANY OF THE HEBREW …, priority 2023, published 2026).

One test has as its system IL1β. Put plainly: Secretion of IL1β from BzATP/LPS-activated microglia (ELISA). The test is classed as cell-based, Balb/C mice. Here is the method:
(§1) Experiments were performed on primary microglial cells isolated from brains of neonatal Balb/C mice as previously described (Reichert and Rotshenker, 2003). The brains were stripped of their meninges and enzymatically dissociated. Cells were plated on Poly-L-lysine coated flasks for one week, re-plated for 1- to 2-hr on bacteriological plates and non-adherent cells were washed away. Microglia were propagated by incubation in 20% of medium, conditioned by the L-cell line that produces mouse-CSF. They were identified by morphology and positive immune-reactivity to P2y12, F4/80, complement receptor-3 and Galectin-3/MAC-2 (Reichert and Rotshenker 2003; Gitik et al. 2011).
(§2) Cytokines were measured as previously described (Shamash et al. 2002) using ELISA Max deluxe set (Biolegend, CA, USA) for secreted TNFα and IL-6 proteins and ELISA DuoSet (R&D systems, UK) for secreted and cell associated IL-1β, according to manufacturer's instructions.
(§3) The effect of ladostigil at concentrations of 1×10^−13 M to 1×10^−9 M on the secretion of cytokine proteins was assessed by adding it to microglia for 2 hr before LPS (0.75 μg/ml) and BzATP (400 μM). Other microglia were treated similarly with the steroid, budesonide as a reference standard at concentrations of 1× 10^−13 to 1× 10^−11 M. Measurements of cytokine secretion were performed 8 hrs after addition of LPS and BzATP. Since the levels of secreted IL-1β were still low, samples were concentrated 2- to 4-fold by an Amicon ultra-centrifugal filter device (Merck-Millipore, Ireland). ELISA was used to quantify the levels of cytokine proteins. Protein content in the microglia lysate was measured by Bradford and levels of cytokines were calculated and presented as pg/μg of microglial protein.

The subject of the next test is NFκB. The note with it: LPS; cited from earlier work.
Test [1] has as its system primary mouse microglial cultures activated by lipopolysaccharide (LPS). The conditions noted are these: cited from earlier work.
The test system of another test is TNFAIP3. Put plainly: Levels of TNFAIP3 protein in microglial cytoplasm. It is filed as cell-based, Balb/C mice. Here is the method: as §1
The addition of BzATP/LPS to microglia increased cytoplasmic levels of TNFαIP3 protein and nuclear ERGR1 protein.

In another test the test system is IL6. Put plainly: Secretion of IL6 from BzATP/LPS-activated microglia (ELISA). The test is classed as cell-based, Balb/C mice. Here is the method: as §1, §2, §3
(ELISA stands for enzyme-linked immunosorbent assay.)

A further test deals with TNFα. Put plainly: TNFα in bronchial fluid, bleomycin-induced lung fibrosis (ELISA). The conditions noted are these: ladostigil, bleomycin-induced lung fibrosis. It is filed as in vivo, C57BL/6JOlaHsd mice. The protocol:
The animal model of bleomycin-induced lung fibrosis is widely used to characterize the potential inhibitory effect of newly developed drugs (Distler et al. 2019). Experiments were performed in C57BL/6JOlaHsd male and female mice aged 12-13 weeks. Male mice weighed 23-27.3 g and female mice, 19.4-21.1 g. They were housed under pathogen-free conditions, up to 6 per cage, in IVC cages under a controlled temperature of 22-24° C., humidity and alternating 12-h light/dark cycles and provided with food and water ad libitum. In order to minimize the stress of daily injection, ladostigil (5 mg/Kg/day) was administered by micro-osmotic pumps, implanted subcutaneously under ketamine/xylazine anesthesia, 5 days before administration of bleomycin, and delivered for 3 weeks to mice of each sex. Saline (2-3/sex) and bleomycin controls were anesthetized as described above. Bleomycin solution (0.25 mg/kg in 50 μl) was instilled into the lumen of the trachea as shown in a video by Ehrentraut et al. (2019). […] TNFα and IL-6 in the bronchial fluid lavage was measured by ELISA as described in the preceding section.
Experiments were performed in C57BL/6JOlaHsd male mice aged 12-13 weeks as described for ladostigil. […] Fibrosis was measured by staining with Sirius red as described for ladostigil. TNFα and IL-6 in the bronchial fluid lavage was measured by ELISA as described for ladostigil.

The nature of test [2]: Body weight in bleomycin-induced lung fibrosis. The test is classed as in vivo, C57BL/6JOlaHsd mice. The conditions noted are these: bleomycin lung fibrosis. The protocol:
The animal model of bleomycin-induced lung fibrosis is widely used to characterize the potential inhibitory effect of newly developed drugs (Distler et al. 2019). Experiments were performed in C57BL/6JOlaHsd male and female mice aged 12-13 weeks. Male mice weighed 23-27.3 g and female mice, 19.4-21.1 g. They were housed under pathogen-free conditions, up to 6 per cage, in IVC cages under a controlled temperature of 22-24° C., humidity and alternating 12-h light/dark cycles and provided with food and water ad libitum. In order to minimize the stress of daily injection, ladostigil (5 mg/Kg/day) was administered by micro-osmotic pumps, implanted subcutaneously under ketamine/xylazine anesthesia, 5 days before administration of bleomycin, and delivered for 3 weeks to mice of each sex. Saline (2-3/sex) and bleomycin controls were anesthetized as described above. Bleomycin solution (0.25 mg/kg in 50 μl) was instilled into the lumen of the trachea as shown in a video by Ehrentraut et al. (2019). […] Mice were weighed daily and sacrificed on day 21. Bronchial fluid was collected as described in Ehrentraut et al. (2019). TNFα and IL-6 in the bronchial fluid lavage was measured by ELISA as described in the preceding section.
Experiments were performed in C57BL/6JOlaHsd male mice aged 12-13 weeks as described for ladostigil. AN1284 (2.5 mg/kg/day) was administered by micro-osmotic pumps, implanted subcutaneously under ketamine/xylazine anesthesia, 5 days before administration of bleomycin and delivered for 3 weeks. Mice were weighed daily, sacrificed on day 21 and bronchial fluid was collected. Fibrosis was measured by staining with Sirius red as described for ladostigil. TNFα and IL-6 in the bronchial fluid lavage was measured by ELISA as described for ladostigil.

Test [3] concerns BzATP/LPS-activated microglia. Put plainly: Gene expression (RNA-seq) in BzATP/LPS-activated microglia. The test is classed as cell-based, Balb/C mice. The conditions noted are these: 1×10^−10 M, 8 hrs after BzATP/LPS. Here is the method: as §1
Ladostigil (1×10^−10 M) was added to microglia for 2 hrs before BzATP/LPS. Cells were harvested before and 8 hr after addition of BzATP/LPS. Total RNA was extracted using the RNeasy Plus Universal Mini Kit (QIAGEN) according to the manufacturer's protocol. Total RNA samples (1 μg RNA) were enriched for mRNAs by pull-down of poly A. Libraries were prepared using the KAPA Stranded mRNA-Seq Kit according to the manufacturer's protocol and sequenced using Illumina NextSeq 500 to generate 85 bp single-end reads (total 25-30 million reads per sample) as described in Zohar et al. (2021).
Next-generation sequencing data underwent quality control using FastQC. They were then preprocessed using Trimmomatic (Bolger et al. 2014) and aligned to the reference genome GRCm38 with the STAR aligner (Dobin et al. 2013) using default parameters. Genomic loci were annotated using GENCODE version M25 (Frankish et al. 2019). Genes with low expression were filtered out of the dataset by setting a threshold of a minimum of 2 counts-per-million in three samples.
Pair-wise differential analyses were performed between all […] BzATP/LPS time points and genes with an FDR <0.01 were considered.

The mark [4] stands for this setting: all concentrations tested, added 2 hrs before BzATP and LPS, 0.1% BSA, p<0.01.

“Also recorded” adds a separate entry of the source.

Take `C#CCN[C@@H]1CCc2ccc(OC(=O)N(C)CC)cc21` [Ladostigil, 6-(N-ethyl, N-methylcarbamyloxy)-N propargyl-1 (R)-aminoindan hemitartrate]: the Emax in the test with IL1β (Mus musculus, Microglia, 8 h, 1×10^−11-1×10^−9 M, read-out: maximal reduction of IL1β) is around 50%. In addition, the minimal effective concentration in the test on IL1β (Mus musculus, microglia, BzATP/LPS, medium containing BSA, 8 hrs, read-out: lowest concentration that significantly decreased IL1β secretion) came to 1e-06 µM. For the same compound, in the test with IL1β (setting [4]), the “reduction of IL1β release” value is on record as “reduced the 3 cytokines significantly”. Moreover, the “reduction of IL1β compared with reduction of TNFα” value in the test with IL1β (ladostigil 1×10^−9 M, budesonide 1×10^−11 M) is given as “greater than that of TNFα”. Further, in the test with NFκB, the “nuclear translocation of NFκB” value is on record as “decrease in the nuclear translocation of NFκB”. Also, in test [1], the IL1β gene expression result is “decreased gene expression”, the IL-6 gene expression entry was “decreased gene expression” and the TNFα gene expression result was “decreased gene expression”. The “Mean conc. ± SEM of TNFAIP3 in microglial cytoplasm” value in the test with TNFAIP3 (BzATP/LPS, ladostigil 1×10^−10 M, Medium 19.8 ± 0.6) is given as 28.8 ± 0.9. Moreover, in the test on TNFAIP3 (microglia, ladostigil 1×10^−10 M on top of BzATP/LPS), the “change in cytoplasmic TNFαIP3 protein” value is recorded as “further increase”. Moreover, the Emax in the test on IL6 (Mus musculus, Microglia, 8 h, 1×10^−11-1×10^−9 M, read-out: maximal reduction of IL6) was around 50%. In the test on IL6 (Mus musculus, microglia, BzATP/LPS, medium containing BSA, 8 hrs, read-out: lowest concentration that significantly decreased IL6 secretion), the minimal effective concentration amounted to 1e-07 µM. The “reduction of IL6 release” value in the test on IL6 (setting [4]) is on record as “reduced the 3 cytokines significantly”. Also, in the test on IL6 (all concentrations tested, p<0.001), the “reduction of IL6 compared with reduction of TNF” value is given as “greater than those of TNF”. Also, the “TNFα in bronchial fluid” value with TNFα was “generally not affected; also recorded: did not reduce”. The body weight loss entry in test [2] (females, 5 and 10 mg/kg) is “significantly reduced weight loss”. Besides, the body weight loss entry in test [2] (males, only at 10 mg/kg) is given as “significantly reduced weight loss”. Moreover, in test [3], the Egr1 gene expression result is listed as “downregulated”, the Egr2 gene expression entry is given as “downregulated”, the Mmp12 gene expression entry is on record as “downregulated” and the “TNFαIP3 (A20) gene expression” value was “up-regulated”. Further, in test [3], the Timp1 gene expression entry is recorded as “downregulated” and the “number of genes significantly altered in expression” value turned out to be 25 genes.
